Reference: patent publication US11180462B2, “Microbiocidal oxadiazole derivatives” (SYNGENTA PARTICIPATIONS AG, priority 2015, dated 2021)

System: Glomerella lagenarium (Colletotrichum lagenarium)
Assay: Fungicidal activity against Glomerella lagenarium (Colletotrichum lagenarium) liquid culture / cucumber / preventative (anthracnose)
Type: cell-based
Conditions: Colletotrichum orbiculare; 20 ppm in the applied formulation; liquid culture (PDB), growth inhibition measured photometrically after 3 to 4 days; compared to untreated control; read-out: disease control
Description: Mycelia fragments or conidia suspensions of a fungus prepared either freshly from liquid cultures of the fungus or from cryogenic storage, are directly mixed into nutrient broth. DMSO solutions of the test compound (max. 10 mg/ml) are diluted with 0.025% Tween20 by a factor of 50 and 10 μl of this solution is pipetted into a microtiter plate (96-well format). The nutrient broth containing the fungal spores/mycelia fragments is then added to give an end concentration of the tested compound. The test plates are incubated in the dark at 24° C. and 96% relative humidity. The inhibition of fungal growth is determined photometrically after 2 to 7 days, depending on the pathosystem, and percent antifungal activity relative to the untreated check is calculated.
Fungicidal activity against Glomerella lagenarium (Colletotrichum lagenarium) liquid culture/cucumber/Preventative (Anthracnose)
Conidia of the fungus from cryogenic storage are directly mixed into nutrient broth (PDB—potato dextrose broth). After placing a (DMSO) solution of test compound into a microtiter plate (96-well format), the nutrient broth containing the fungal spores is added.
The following compounds at 20 ppm in the applied formulation give at least 80% disease control in this test when compared to untreated control under the same conditions, which show extensive disease development.

**Q.** Which inhibition of growth at 20 ppm does the source give for `O=C(Cc1ccccc1Cl)N(Cc1ccc(-c2noc(C(F)(F)F)n2)cc1)C1CC1` [Compound 1.94, 2-(2-chlorophenyl)-N-cyclopropyl-N-[[4-[5-(trifluoromethyl)-1,2,4-oxadiazol-3-yl]phenyl]methyl]-acetamide] here?
**A.** ≥ 80%

**Q.** `O=C(C1CC1(F)F)N(Cc1ccc(-c2noc(C(F)(F)F)n2)cc1)OCC=C(Cl)Cl` (stereo not shown) [Compound 1.540, N-(3,3-dichloroallyloxy)-2,2-difluoro-N-[[4-[5-(trifluoromethyl)-1,2,4-oxadiazol-3-yl]phenyl]methyl]-cyclopropane-carboxamide] was tested. Which inhibition of growth at 20 ppm did it give?
**A.** ≥ 80%

**Q.** `O=C(CCl)N(Cc1ccc(-c2noc(C(F)(F)F)n2)cc1)OCc1ccc(Cl)cc1` [Compound 1.553, 2-chloro-N-[(4-chlorophenyl)-methoxy]-N-[[4-[5-(trifluoromethyl)-1,2,4-oxadiazol-3-yl]phenyl]methyl]-acetamide] was tested. Which inhibition of growth at 20 ppm did it give?
**A.** ≥ 80%

**Q.** With `CC(C)C(=O)N(Cc1ccc(-c2noc(C(F)(F)F)n2)cc1)OCC=C(Cl)Cl` [Compound 1.539, N-(3,3-dichloroallyloxy)-2-methyl-N-[[4-[5-(trifluoromethyl)-1,2,4-oxadiazol-3-yl]phenyl]methyl]-propanamide] as the molecule, how does the inhibition of growth at 20 ppm read?
**A.** ≥ 80%

**Q.** Which inhibition of growth at 20 ppm does the source give for `CON(Cc1ccc(-c2noc(C(F)(F)F)n2)cc1)C(=O)n1ccnc1` [Compound 1.811, N-methoxy-N-[[4-[5-(trifluoromethyl)-1,2,4-oxadiazol-3-yl]phenyl]methyl]-imidazole-1-carboxamide] here?
**A.** ≥ 80%

**Q.** With `COc1ccc(C2(C(=O)N(Cc3ccc(-c4noc(C(F)(F)F)n4)cc3)OC)CC2)cc1` [Compound 1.74, N-methoxy-1-(4-methoxyphenyl)-N-[[4-[5-(trifluoromethyl)-1,2,4-oxadiazol-3-yl]phenyl]methyl]-cyclopropane-carboxamide] as the molecule, how does the inhibition of growth at 20 ppm read?
**A.** ≥ 80%

**Q.** Which inhibition of growth at 20 ppm does the source give for `CCCCC(=O)N(OC)C(C)c1ccc(-c2noc(C(F)(F)F)n2)cc1` (stereo not shown) [Compound 1.281, N-methoxy-N-[1-[4-[5-(trifiuoromethyl)-1,2,4-oxadiazol-3-yl]phenyl]ethyl]-pentanamide] here?
**A.** ≥ 80%

**Q.** With `CON(Cc1ccc(-c2noc(C(F)(F)F)n2)cc1)C(=O)OCCCCCl` [Compound 2.13, 4-chlorobutyl N-methoxy-N-[[4-[5-(trifluoromethyl)-1,2,4-oxadiazol-3-yl]phenyl]methyl]-carbamate] as the molecule, how does the inhibition of growth at 20 ppm read?
**A.** ≥ 80%

**Q.** For `COCCCC(=O)N(Cc1ccc(-c2noc(C(F)(F)F)n2)cc1)OCC=C(Cl)Cl` [Compound 1.543, N-(3,3-dichloroallyloxy)-4-methoxy-N-[[4-[5-(trifluoromethyl)-1,2,4-oxadiazol-3-yl]phenyl]methyl]-butanamide], which inhibition of growth at 20 ppm is on record?
**A.** ≥ 80%

**Q.** How did the inhibition of growth at 20 ppm turn out when `N#CCC(=O)N(Cc1ccc(-c2noc(C(F)(F)F)n2)cc1)Cc1ccco1` [Compound 1.470, 2-cyano-N-(2-furylmethyl)-N-[[4-[5-(trifluoromethyl)-1,2,4-oxadiazol-3-yl]phenyl]methyl]-acetamide] was run?
**A.** ≥ 80%

**Q.** For `O=C(C=CC(F)(F)F)N(Cc1ccc(-c2noc(C(F)(F)F)n2)cc1)CC1CCCO1` (stereo not shown) [Compound 1.425, 4,4,4-trifluoro-N-(tetrahydrofuran-2-ylmethyl)-N-[[4-[5-(trifluoromethyl)-1,2,4-oxadiazol-3-yl]phenyl]methyl]-but-2-enamide], which inhibition of growth at 20 ppm is on record?
**A.** ≥ 80%

**Q.** Which inhibition of growth at 20 ppm does the source give for `CCC(C)N(Cc1ccc(-c2noc(C(F)(F)F)n2)cc1)C(=O)C=CC(F)(F)F` (stereo not shown) [Compound 1.382, 4,4,4-trifluoro-N-sec-butyl-N-[[4-[5-(trifluoromethyl)-1,2,4-oxadiazol-3-yl]phenyl]methyl]but-2-enamide] here?
**A.** ≥ 80%

**Q.** How did the inhibition of growth at 20 ppm turn out when `CCCON(Cc1ccc(-c2noc(C(F)(F)F)n2)cc1)C(=O)CC(C)C` [Compound 1.294, 3-methyl-N-propoxy-N-[[4-[5-(trifluoromethyl)-1,2,4-oxadiazol-3-yl]phenyl]methyl]-butanamide] was run?
**A.** ≥ 80%

**Q.** For `CON(C(=O)C1(F)CC1)C(C)c1ccc(-c2noc(C(F)(F)F)n2)cc1` (stereo not shown) [Compound 1.271, 1-fluoro-N-methoxy-N-[1-[4-[5-(trifluoromethyl)-1,2,4-oxadiazol-3-yl]phenyl]ethyl]-cyclopropane-carboxamide], which inhibition of growth at 20 ppm is on record?
**A.** ≥ 80%

**Q.** How did the inhibition of growth at 20 ppm turn out when `COC(C)C(=O)N(Cc1ccc(-c2noc(C(F)(F)F)n2)cc1)OCc1ccc(Cl)cc1` (stereo not shown) [Compound 1.559, N-[(4-chlorophenyl)-methoxy]-2-methoxy-N-[[4-[5-(trifluoromethyl)-1,2,4-oxadiazol-3-yl]phenyl)methyl]-propanamide] was run?
**A.** ≥ 80%

**Q.** For `CON(Cc1ccc(-c2noc(C(F)(F)F)n2)cc1)C(=O)C(F)(F)F` [Compound 1.780, 2,2,2-trifluoro-N-methoxy-N-[[4-[5-(trifluoromethyl)-1,2,4-oxadiazol-3-yl]phenyl]methyl]-acetamide], which inhibition of growth at 20 ppm is on record?
**A.** ≥ 80%

**Q.** Which inhibition of growth at 20 ppm does the source give for `O=C(N(Cc1ccc(-c2noc(C(F)(F)F)n2)cc1)CC1CC1)C1(C(F)(F)F)CC1` [Compound 1.203, N-(cyclopropylmethyl)-1-(trifluoromethyl)-N-[[4-[5-(trifluoromethyl)-1,2,4-oxadiazol-3-yl]phenyl]methyl]-cyclopropane-carboxamide] here?
**A.** ≥ 80%

**Q.** Which inhibition of growth at 20 ppm does the source give for `O=C(CCC(F)(F)F)N(Cc1ccc(-c2noc(C(F)(F)F)n2)cc1)CC1CC1` [Compound 1.213, N-(cyclopropylmethyl)-4,4,4-trifluoro-N-[[4-[5-(trifluoromethyl)-1,2,4-oxadiazol-3-yl]phenyl]methyl]-butanamide] here?
**A.** ≥ 80%

**Q.** With `CC1(C(=O)N(Cc2ccc(-c3noc(C(F)(F)F)n3)cc2)C2CC2)CCCCC1` [Compound 1.108, N-cyclopropyl-1-methyl-N-[[4-[5-(trifluoromethyl)-1,2,4-oxadiazol-3-yl]phenyl]methyl]-cyclohexane-carboxamide] as the molecule, how does the inhibition of growth at 20 ppm read?
**A.** ≥ 80%

**Q.** How did the inhibition of growth at 20 ppm turn out when `CCCCC(=O)N(Cc1ccc(-c2noc(C(F)(F)F)n2)cc1)C(C)CC` (stereo not shown) [Compound 1.409, N-sec-butyl-N-[[4-[5-(trifluoromethyl)-1,2,4-oxadiazol-3-yl]phenyl]methyl]-pentanamide] was run?
**A.** ≥ 80%

**Q.** For `COC(C)C(=O)N(Cc1ccc(-c2noc(C(F)(F)F)n2)cc1)OCC=C(Cl)Cl` (stereo not shown) [Compound 1.546, N-(3,3-dichloroallyloxy)-2-methoxy-N-[[4-[5-(trifluoromethyl)-1,2,4-oxadiazol-3-yl]phenyl]methyl]-propanamide], which inhibition of growth at 20 ppm is on record?
**A.** ≥ 80%

**Q.** With `CON(C(=O)C1(C)CC1)C(C)c1ccc(-c2noc(C(F)(F)F)n2)cc1` (stereo not shown) [Compound 1.268, N-methoxy-1-methyl-N-[1-[4-[5-(trifluoromethyl)-1,2,4-oxadiazol-3-yl]phenyl]ethyl]-cyclopropane-carboxamide] as the molecule, how does the inhibition of growth at 20 ppm read?
**A.** ≥ 80%

**Q.** With `O=C(C1CC1(Cl)Cl)N(Cc1ccc(-c2noc(C(F)(F)F)n2)cc1)CC1CC1` (stereo not shown) [Compound 1.232, 2.2-dichloro-N-(cyclopropylmethyl)-N-[[4-[5-(trifluoromethyl)-1,2,4-oxadiazol-3-yl]phenyl]methyl]-cyclopropane-carboxamide] as the molecule, how does the inhibition of growth at 20 ppm read?
**A.** ≥ 80%

**Q.** `CON(C(=O)C1CCCC1)C(C)c1ccc(-c2noc(C(F)(F)F)n2)cc1` (stereo not shown) [Compound 1.257] was tested. Which inhibition of growth at 20 ppm did it give?
**A.** ≥ 80%

**Q.** With `CCC(C)C(=O)N(Cc1ccc(-c2noc(C(F)(F)F)n2)cc1)OCC=C(Cl)Cl` (stereo not shown) [Compound 1.542, N-(3,3-dichloroallyloxy)-2-methyl-N-[[4-[5-(trifluoromethyl)-1,2,4-oxadiazol-3-yl]phenyl]methyl]-butanamide] as the molecule, how does the inhibition of growth at 20 ppm read?
**A.** ≥ 80%

**Q.** With `CCCC(C)(C)C(=O)N(Cc1ccc(-c2noc(C(F)(F)F)n2)cc1)C1CC1` [Compound 1.85, N-cyclopropyl-2,2-dimethyl-N-[[4-[5-(trifluoromethyl)-1,2,4-oxadiazol-3-yl]phenyl]methyl]-pentanamide] as the molecule, how does the inhibition of growth at 20 ppm read?
**A.** ≥ 80%

**Q.** `O=C(C1CC1)N(Cc1ccc(-c2noc(C(F)(F)F)n2)cc1)OCC=C(Cl)Cl` [Compound 1.548, N-(3,3-dichloroallyloxy)-N-[[4-[5-(trifluoromethyl)-1,2,4-oxadiazol-3-yl]phenyl]methyl]-cyclopropane-carboxamide] was tested. Which inhibition of growth at 20 ppm did it give?
**A.** ≥ 80%

**Q.** How did the inhibition of growth at 20 ppm turn out when `CON(Cc1ccc(-c2noc(C(F)(F)F)n2)cc1)C(=O)CCc1ccc(Cl)cc1` [Compound 1.18, 3-(4-chlorophenyl)-N-methoxy-N-[[4-[5-(trifluoromethyl)-1,2,4-oxadiazol-3-yl]phenyl]methyl]-propanamide] was run?
**A.** ≥ 80%

**Q.** For `CON(Cc1ccc(-c2noc(C(F)(F)F)n2)cc1)C(=O)OCc1ccccc1` [Compound 2.10, benzyl N-methoxy-N-[[4-[5-(trifluoromethyl)-1,2,4-oxadiazol-3-yl]phenyl]methyl]-carbamate], which inhibition of growth at 20 ppm is on record?
**A.** ≥ 80%

**Q.** How did the inhibition of growth at 20 ppm turn out when `CC1(C)CC1C(=O)N(Cc1ccc(-c2noc(C(F)(F)F)n2)cc1)CC1CC1` (stereo not shown) [Compound 1.231, N-(cyclopropylmethyl)-2,2-dimethyl-N-[[4-[5-(trifluoromethyl)-1,2,4-oxadiazol-3-yl]phenyl]methyl]-cyclopropane-carboxamide] was run?
**A.** ≥ 80%

**Q.** `CON(C(=O)CC(C)C)C(C)c1ccc(-c2noc(C(F)(F)F)n2)cc1` (stereo not shown) [Compound 1.261, N-methoxy-3-methyl-N-[1-[4-[5-(trifluoromethyl)-1,2,4-oxadiazol-3-yl]phenyl]ethyl]-butanamide] was tested. Which inhibition of growth at 20 ppm did it give?
**A.** ≥ 80%
